In patent US8729254B2, “Derivative of glucose and vitamin F, compositions comprising it, uses and preparation process” (L'Oreal, priority 2002, dated 2014):
Blank lines part the entries; values can stand above or below the molecule they belong to.

Columns and labels:
[1] = biological target: T1, purified soybean 15-lipoxygenase L1 (Glycine max, UniProt P08170); assay: inhibition of purified soybean 15-lipoxygenase (oxymeter, Vmax of oxygen consumption); format: biochemical; conditions: test compound at 1 mM, relative to the control (DMSO), 25° C., pH 7.5, average of 10 tests
T1 sequence (P08170 1-839): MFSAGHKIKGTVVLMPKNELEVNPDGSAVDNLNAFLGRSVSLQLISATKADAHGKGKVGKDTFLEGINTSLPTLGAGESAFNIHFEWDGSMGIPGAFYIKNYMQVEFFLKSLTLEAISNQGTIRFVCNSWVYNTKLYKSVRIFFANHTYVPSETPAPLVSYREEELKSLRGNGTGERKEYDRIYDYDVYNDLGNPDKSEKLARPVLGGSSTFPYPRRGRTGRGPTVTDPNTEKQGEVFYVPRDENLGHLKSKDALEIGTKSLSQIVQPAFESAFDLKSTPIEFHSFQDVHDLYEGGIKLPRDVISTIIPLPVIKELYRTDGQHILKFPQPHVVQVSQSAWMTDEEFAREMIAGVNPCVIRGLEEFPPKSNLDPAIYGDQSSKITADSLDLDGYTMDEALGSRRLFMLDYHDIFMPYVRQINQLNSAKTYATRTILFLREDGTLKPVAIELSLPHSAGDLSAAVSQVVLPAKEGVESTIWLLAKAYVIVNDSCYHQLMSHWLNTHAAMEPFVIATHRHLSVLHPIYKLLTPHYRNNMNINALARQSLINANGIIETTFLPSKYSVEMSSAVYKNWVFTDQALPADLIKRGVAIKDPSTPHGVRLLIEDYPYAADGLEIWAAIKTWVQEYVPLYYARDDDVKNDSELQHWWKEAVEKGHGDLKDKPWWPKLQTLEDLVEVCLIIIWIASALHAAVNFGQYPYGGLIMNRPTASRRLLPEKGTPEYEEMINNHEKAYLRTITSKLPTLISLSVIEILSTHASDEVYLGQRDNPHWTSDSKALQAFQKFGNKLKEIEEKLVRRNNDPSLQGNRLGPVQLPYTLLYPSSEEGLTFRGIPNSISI
Description: The effect of the compounds of disclosed herein on the inhibition of purified soybean 15-lipoxygenase was thus tested, given that soybean 15-lipoxygenase is a study model commonly used as a predictive model for human 5-lipoxygenase.
The test performed was as follows:
preparation of a 100 mM, pH 7.5 Tris buffer solution
preparation of a suspension of purified soybean 15-lipoxygenase L1 (0.20 mg/ml) in a pH 7.5100 mM Tris buffer; storage in ice;
calibration of the oxymeter, tank equipped with a magnetic stirring system and thermostatically maintained at 25° C.;
preparation of an aqueous-alcoholic solution (absolute ethanol/water, 5/95, v/v) of potassium arachidonate at a concentration of 7.5 mM;
preparation of a solution of the test compound at a concentration of 30 mM in dimethyl sulphoxide (DMSO);
introduction into the oxymeter tank, with stirring, of 456.6 μl of buffer solution, 16.7 μl of potassium arachidonate solution and 16.7 μl of solution of the test compound or 16.7 μl of DMSO in the case of the “control” measurement.
The recorder was switched on and 10 μl of suspension of 15-lipoxygenase was introduced into the tank.
The maximum rate of consumption of oxygen (Vmax) was recorded.
The various Vmax values were compared with that of the control and the results were expressed as a % thereof. The test was repeated 10 times and an average of these 10 tests were determined.

[2] = 0.1% by weight in ethanol/isopropanol/water (64/16/20 by volume), 45° C., 2 months; hydrolysed glucopyranose linoleate by HPLC
Description: The stability of the compounds disclosed herein were assessed (measured by the hydrolysis of the esters).
Solutions comprising 0.1% by weight of the compounds in an ethanol/isopropanol/water mixture (64/16/20 by volume) were prepared. These solutions were left in a chamber thermostatically maintained at 45° C. for 2 months.

inhibition at 1000 µM [1]: 15%
Compound: CCCCCCCCCCCCCCCC(=O)OC[C@H]1OC(O)[C@H](O)[C@@H](O)[C@@H]1O (stereo partly drawn) [Compound D, 6-O-hexadecanoyl-D-glucopyranose]

% of hydrolysis [2]: 30%
inhibition at 1000 µM [1]: 80%
Compound: CCCCCC=CCC=CCCCCCCCC(=O)O[C@H]1[C@H](O)[C@@H](CO)OC(O)[C@@H]1O (stereo partly drawn) [Compound E, 3-O-octadeca-9,12-dienoyl-D-glucopyranose]

The remaining lines, values behind:

Compound: CCCCCC=CCC=CCCCCCCCC(=O)OC[C@H]1OC(O)[C@H](O)[C@@H](O)[C@@H]1O (stereo partly drawn) [Compound A, 6-O-octadeca-9,12-dienoyl-D-glucopyranose]
% of hydrolysis [2]: 7%
inhibition at 1000 µM [1]: 71%

Compound: CCCCCCCCC=CCCCCCCCC(=O)OC[C@H]1OC(O)[C@H](O)[C@@H](O)[C@@H]1O (stereo partly drawn) [Compound B, 6-O-octadeca-9-enoyl-D-glucopyranose]
inhibition at 1000 µM [1]: 30%

Compound: CCCCCCCCCCCCCCCCCC(=O)OC[C@H]1OC(O)[C@H](O)[C@@H](O)[C@@H]1O (stereo partly drawn) [Compound C, 6-O-octadecanoyl-D-glucopyranose]
inhibition at 1000 µM [1]: 49%
